Tested on: Tumors from APC-/- mice
Experiment: 13C isotopic tracing in APC-/- tumors ex vivo (LC-MS/MS)
Format: cell-based, mouse
Settings: 10 min ex vivo

SMILES	F1P 13C-labeled at all six positions (M+6), percentage of labeling [%]	percentage of fully labeled lactate [%]
O=[13C]([13CH2]O)[13C@@H](O)[13C@H](O)[13C@H](O)[13CH2]O [^13C-fructose, D-[U-^13C6]-Fructose]	47.1	–
O=[13CH][13C@H](O)[13C@@H](O)[13C@H](O)[13C@H](O)[13CH2]O [^13C-glucose, D-[U-^13C6]-Glucose]	–	30.2
